# Experimental data reported in US6013200A, “Low toxicity corrosion inhibitor” (Baker Hughes Incorporated, priority 1997, dated 2000).
# Tests used:
# [1] = Biodegradability in sea water; settings: after 28 days
# Skeletonema costatum = assay: Aquatic toxicity testing; type: in vivo
structure (smiles),measurement,setting,value
NCCN1CCNC1=S [1-(2-aminoethyl)-2-imidazolidinethione],biodegradability,[1],100%
same,EC50,Skeletonema costatum,236 µg/mL
